These results are taken from publication PMC11484808, “Streamlined analysis of drug targets by proteome integral solubility alteration indicates organ-specific engagement” (Nature Communications, 2024).

The target of this assay is T1, Pirin (Homo sapiens, UniProt O00625).
T1 construct: gene PIR; recombinant human pirin (Abcam, ab123170)
T1 sequence (O00625 1-290): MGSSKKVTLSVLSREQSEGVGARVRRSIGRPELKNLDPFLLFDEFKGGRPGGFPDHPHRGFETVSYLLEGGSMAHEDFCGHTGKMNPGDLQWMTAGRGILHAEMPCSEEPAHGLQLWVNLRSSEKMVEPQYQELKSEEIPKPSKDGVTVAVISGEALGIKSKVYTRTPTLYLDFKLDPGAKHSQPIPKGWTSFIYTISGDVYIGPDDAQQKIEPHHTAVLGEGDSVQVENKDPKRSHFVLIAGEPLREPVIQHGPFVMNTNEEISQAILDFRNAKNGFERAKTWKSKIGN
The experiment in a line: SPR (Biacore T200), steady state; also TPP-PISA stabilization in extracts. Format: binding. For orientation: In SPR one partner is held on a chip, and binding of the other changes the refractive index at the surface.

On to `CC(C)Cc1ccc(C(C)C(=O)O)cc1` (stereo not shown) [Ibuprofen], for which the Kd (in general, the free concentration of one partner at which half of the binding sites on the other are occupied at equilibrium, for simple one-to-one binding) is around 546 µM.
